What was measured:
Type in all cases: biochemical
Conditions in all cases: Enzymatic Data
[1] = molecular target: T1, PI3K alfa (Homo sapiens, UniProt P42336); assay: PI3K alfa enzymatic assay (Kinase-Glo luminescence)
T1 construct: p85(iSH2) fusion partner (same polypeptide; see partner chain) (N); 12x Gly linker (N); His tag (C); made in house; host or cells: baculovirus; Tn5 (Trichoplusia ni) or TiniPro insect cells
Experimental: (§1) In a more preferred assay, the kinase reaction is performed in a final volume of 10 μL per well of a low volume non binding CORNING, 384 well black plate (Cat. No. #3676). The final concentrations of ATP and phosphatidyl inositol (PI) in the assay are 1 μM and 10 μg/mL respectively. The reaction is started by the addition of ATP.
(§2) The components of the assay are added per well as follows:
(§3) 50 nL test compounds in 90% DMSO per well, in columns 1-20, 8 concentrations (⅓ and 1/3.33 serial dilution step) in single. • Low control: 50 nL of 90% DMSO in half the wells of columns 23-24 (0.45% in final). • High control: 50 nL of reference compound (e.g. compound of Example 7 in WO 2006/122806, incorporated by reference herein that regard) in the other half of columns 23-24 (2.5 μM in final). • Standard: 50 nL of reference compound as just mentioned diluted as the test compounds in columns 21-22 • 20 mL ‘buffer’ are prepared per assay: • 200 μL of 1M TRIS HCl pH7.5 (10 mM in final) • 60 μL of 1M MgCl2 (3 mM in final) • 500 μL of 2M NaCl (50 mM in final) • 100 μL of 10% CHAPS (0.05% in final) • 200 μL of 100 mM DTT (1 mM in final) • 18.94 mL of nanopure water • 10 mL ‘PI’ are prepared per assay: • 200 μL of 1 mg/ml L-alpha-Phosphatidylinositol (Liver Bovine, Avanti Polar Lipids Cat. No. 840042C MW=909.12) prepared in 3% OctylGlucoside ([…]) • 9.8 mL of ‘buffer’ • 10 mL ‘ATP’ are prepared per assay: • 6.7 μL of 3 mM stock of ATP giving a final concentration of 1 μM per well • 10 mL of ‘buffer’ • 2.5 mL of each PI3K construct are prepared per assay in ‘PI’ with the following final concentration: • 10 nM PI3K alfa BV-1075 • 25 nM beta BV-949 • 10 nM delta BV-1060 • 150 nM gamma BV-950 • 5 μL of ‘PI/PI3K’ are added per well. • 5 μl ‘ATP’ are added per well to start the reaction. • The plates are then incubated at room temperature for 60 minutes (alfa, beta, delta) or 120 minutes (gamma). • The reaction is terminated by the addition of 10 μL Kinase-Glo (Promega Cat. No. #6714). • The assay plates are read after 10 minutes in Synergy 2 reader (BioTek, Vermont USA) with an integration time of 100 milliseconds and sensitivity set to 191. • Output: The High control is around 60′000 counts and the Low control is 30′000 or lower • This luminescence assay gives a useful Z′ ratio between 0.4 and 0.7 The Z′ value is a universal measurement of the robustness of an assay. A Z′ between 0.5 and 1.0 is considered an excellent assay.
(§4) IC50 is determined by a four parameter curve fitting routine that comes aloneg with “excel fit”. A 4 Parameter logistic equation is used to calculate IC50 values (IDBS XLfit) of the percentage inhibition of each compound at 8 concentrations (usually 10, 3.0, 1.0, 0.3, 0.1, 0.030, 0.010 and 0.003 μM). Alternatively, IC50 values are calculated using idbsXLfit model 204, which is a 4 parameter logistic model.

[2] = molecular target: T2, PI3K beta (Homo sapiens, UniProt P42338); assay: PI3K beta enzymatic assay (Kinase-Glo luminescence)
T2 construct: for the full-length p110-b subunit are generated and fused by overlapping PCR; p85(iSH2) fusion partner (same polypeptide; see partner chain) (N); Gly linker (N); His tag (C); made in house; host or cells: baculovirus; Tn5 (Trichoplusia ni) or TiniPro insect cells
Experimental: as §1, §2, §3
PI3Kβ BV-949 p85(iSH2)-Gly linker-p110b (Full-Length)-C-Term His Tag
as §4

[3] = molecular target: T3, PI3K delta (Homo sapiens, UniProt O00329); assay: PI3K delta enzymatic assay (Kinase-Glo luminescence)
T3 construct: for the full-length p110-d subunit are generated and fused by overlapping PCR; p85(iSH2) fusion partner (same polypeptide; see partner chain) (N); Gly linker (N); His tag (C); made in house; host or cells: baculovirus; Tn5 (Trichoplusia ni) or TiniPro insect cells
Experimental: as §1, §2, §3
PI3Kδ BV-1060 p85(iSH2)-Gly Linker-p110d (Full-Length)-C-term His Tact
as §4

[4] = molecular target: T4, PI3K gamma (Homo sapiens, UniProt P48736); assay: PI3K gamma enzymatic assay (Kinase-Glo luminescence)
T4 construct: His tag (C); made in house; host or cells: construct from Roger Williams lab (MRC LMB); baculovirus (pVL1393); Tn5 (Trichoplusia ni) or TiniPro insect cells
Experimental: as §1, §2, §3, §4

T2 sequence (P42338 with tags, fused parts or gaps limits assumed): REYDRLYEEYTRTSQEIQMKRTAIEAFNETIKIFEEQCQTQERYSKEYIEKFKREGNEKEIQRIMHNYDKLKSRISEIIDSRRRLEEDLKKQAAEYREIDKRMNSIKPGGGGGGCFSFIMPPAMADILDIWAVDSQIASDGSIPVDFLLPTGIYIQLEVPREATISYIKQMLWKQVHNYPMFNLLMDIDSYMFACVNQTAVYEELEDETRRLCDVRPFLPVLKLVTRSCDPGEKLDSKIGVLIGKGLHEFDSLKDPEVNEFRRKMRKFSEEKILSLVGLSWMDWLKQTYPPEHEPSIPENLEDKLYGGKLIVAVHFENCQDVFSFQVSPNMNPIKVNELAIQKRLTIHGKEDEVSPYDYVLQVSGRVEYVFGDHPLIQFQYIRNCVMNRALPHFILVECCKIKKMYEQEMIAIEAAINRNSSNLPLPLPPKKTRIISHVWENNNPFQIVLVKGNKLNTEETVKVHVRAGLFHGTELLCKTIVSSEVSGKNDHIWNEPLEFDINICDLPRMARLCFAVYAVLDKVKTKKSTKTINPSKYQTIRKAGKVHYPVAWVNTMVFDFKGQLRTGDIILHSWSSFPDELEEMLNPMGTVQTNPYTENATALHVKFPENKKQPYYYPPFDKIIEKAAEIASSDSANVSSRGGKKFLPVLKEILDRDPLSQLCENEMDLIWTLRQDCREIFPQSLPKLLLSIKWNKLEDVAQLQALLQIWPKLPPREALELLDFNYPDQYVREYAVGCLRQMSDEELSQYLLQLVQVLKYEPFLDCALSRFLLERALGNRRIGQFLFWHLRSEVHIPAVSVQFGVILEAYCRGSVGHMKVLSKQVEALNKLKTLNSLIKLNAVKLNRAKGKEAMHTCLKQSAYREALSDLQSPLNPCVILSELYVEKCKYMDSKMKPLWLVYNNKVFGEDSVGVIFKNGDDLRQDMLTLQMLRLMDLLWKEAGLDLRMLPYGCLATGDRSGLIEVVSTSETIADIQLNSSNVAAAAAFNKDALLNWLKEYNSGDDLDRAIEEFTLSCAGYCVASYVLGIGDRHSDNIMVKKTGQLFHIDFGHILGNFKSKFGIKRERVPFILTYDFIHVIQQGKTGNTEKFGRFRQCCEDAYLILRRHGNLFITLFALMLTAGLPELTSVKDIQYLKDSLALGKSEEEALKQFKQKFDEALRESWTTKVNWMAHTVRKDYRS
T4 sequence (P48736 144-1102 limits assumed): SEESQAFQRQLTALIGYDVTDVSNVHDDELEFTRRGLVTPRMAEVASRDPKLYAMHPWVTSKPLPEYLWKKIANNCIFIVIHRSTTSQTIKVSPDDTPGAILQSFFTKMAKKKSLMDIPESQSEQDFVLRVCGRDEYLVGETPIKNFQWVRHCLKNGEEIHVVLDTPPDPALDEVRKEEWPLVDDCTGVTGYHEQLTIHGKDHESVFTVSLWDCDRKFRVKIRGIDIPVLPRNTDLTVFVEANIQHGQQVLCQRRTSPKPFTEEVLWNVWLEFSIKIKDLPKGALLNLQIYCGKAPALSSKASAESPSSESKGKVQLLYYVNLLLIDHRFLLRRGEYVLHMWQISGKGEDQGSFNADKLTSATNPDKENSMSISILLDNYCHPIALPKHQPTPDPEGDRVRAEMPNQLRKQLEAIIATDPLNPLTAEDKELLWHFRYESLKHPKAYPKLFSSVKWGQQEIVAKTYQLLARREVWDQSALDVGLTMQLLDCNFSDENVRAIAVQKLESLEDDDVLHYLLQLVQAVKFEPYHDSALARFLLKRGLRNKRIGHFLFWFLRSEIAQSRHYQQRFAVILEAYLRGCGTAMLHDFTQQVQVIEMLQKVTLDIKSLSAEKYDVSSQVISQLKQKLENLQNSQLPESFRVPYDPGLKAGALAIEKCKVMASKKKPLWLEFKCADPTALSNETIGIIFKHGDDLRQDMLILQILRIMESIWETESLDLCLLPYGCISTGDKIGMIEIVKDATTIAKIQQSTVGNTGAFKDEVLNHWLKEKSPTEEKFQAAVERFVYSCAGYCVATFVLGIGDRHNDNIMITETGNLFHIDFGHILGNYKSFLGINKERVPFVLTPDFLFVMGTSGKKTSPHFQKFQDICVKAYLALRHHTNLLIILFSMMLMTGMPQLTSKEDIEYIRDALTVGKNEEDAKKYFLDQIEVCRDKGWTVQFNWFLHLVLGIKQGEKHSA
T1 sequence (P42336 with tags, fused parts or gaps limits assumed): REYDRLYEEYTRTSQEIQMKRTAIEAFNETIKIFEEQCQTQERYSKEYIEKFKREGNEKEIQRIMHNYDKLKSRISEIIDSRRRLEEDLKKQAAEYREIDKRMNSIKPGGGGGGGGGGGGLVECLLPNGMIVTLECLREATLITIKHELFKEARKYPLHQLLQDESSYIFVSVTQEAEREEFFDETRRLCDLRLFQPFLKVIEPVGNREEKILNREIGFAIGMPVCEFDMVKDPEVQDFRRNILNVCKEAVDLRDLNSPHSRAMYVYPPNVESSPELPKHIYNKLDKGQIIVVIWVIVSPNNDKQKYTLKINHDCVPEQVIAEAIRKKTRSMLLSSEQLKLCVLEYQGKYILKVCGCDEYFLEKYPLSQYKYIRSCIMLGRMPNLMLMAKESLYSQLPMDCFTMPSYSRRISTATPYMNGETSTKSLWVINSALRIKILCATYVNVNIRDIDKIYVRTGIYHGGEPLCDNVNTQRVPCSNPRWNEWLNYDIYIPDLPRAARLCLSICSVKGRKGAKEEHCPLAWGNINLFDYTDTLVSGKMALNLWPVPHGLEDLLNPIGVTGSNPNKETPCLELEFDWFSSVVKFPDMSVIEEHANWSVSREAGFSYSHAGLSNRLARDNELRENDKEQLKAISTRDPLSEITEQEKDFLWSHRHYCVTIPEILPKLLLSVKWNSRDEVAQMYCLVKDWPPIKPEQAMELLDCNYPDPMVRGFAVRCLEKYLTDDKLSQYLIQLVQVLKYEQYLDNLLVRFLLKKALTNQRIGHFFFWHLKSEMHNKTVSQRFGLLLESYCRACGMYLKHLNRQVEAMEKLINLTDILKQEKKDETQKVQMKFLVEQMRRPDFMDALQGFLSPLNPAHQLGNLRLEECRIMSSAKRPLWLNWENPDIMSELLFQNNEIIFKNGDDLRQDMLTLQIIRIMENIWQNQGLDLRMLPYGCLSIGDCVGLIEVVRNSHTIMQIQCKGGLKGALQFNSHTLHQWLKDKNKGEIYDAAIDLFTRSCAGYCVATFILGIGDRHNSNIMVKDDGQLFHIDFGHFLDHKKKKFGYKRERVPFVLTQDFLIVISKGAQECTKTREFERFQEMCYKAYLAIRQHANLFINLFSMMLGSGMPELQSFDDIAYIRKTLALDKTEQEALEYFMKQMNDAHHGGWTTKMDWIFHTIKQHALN
T3 sequence (O00329 with tags, fused parts or gaps limits assumed): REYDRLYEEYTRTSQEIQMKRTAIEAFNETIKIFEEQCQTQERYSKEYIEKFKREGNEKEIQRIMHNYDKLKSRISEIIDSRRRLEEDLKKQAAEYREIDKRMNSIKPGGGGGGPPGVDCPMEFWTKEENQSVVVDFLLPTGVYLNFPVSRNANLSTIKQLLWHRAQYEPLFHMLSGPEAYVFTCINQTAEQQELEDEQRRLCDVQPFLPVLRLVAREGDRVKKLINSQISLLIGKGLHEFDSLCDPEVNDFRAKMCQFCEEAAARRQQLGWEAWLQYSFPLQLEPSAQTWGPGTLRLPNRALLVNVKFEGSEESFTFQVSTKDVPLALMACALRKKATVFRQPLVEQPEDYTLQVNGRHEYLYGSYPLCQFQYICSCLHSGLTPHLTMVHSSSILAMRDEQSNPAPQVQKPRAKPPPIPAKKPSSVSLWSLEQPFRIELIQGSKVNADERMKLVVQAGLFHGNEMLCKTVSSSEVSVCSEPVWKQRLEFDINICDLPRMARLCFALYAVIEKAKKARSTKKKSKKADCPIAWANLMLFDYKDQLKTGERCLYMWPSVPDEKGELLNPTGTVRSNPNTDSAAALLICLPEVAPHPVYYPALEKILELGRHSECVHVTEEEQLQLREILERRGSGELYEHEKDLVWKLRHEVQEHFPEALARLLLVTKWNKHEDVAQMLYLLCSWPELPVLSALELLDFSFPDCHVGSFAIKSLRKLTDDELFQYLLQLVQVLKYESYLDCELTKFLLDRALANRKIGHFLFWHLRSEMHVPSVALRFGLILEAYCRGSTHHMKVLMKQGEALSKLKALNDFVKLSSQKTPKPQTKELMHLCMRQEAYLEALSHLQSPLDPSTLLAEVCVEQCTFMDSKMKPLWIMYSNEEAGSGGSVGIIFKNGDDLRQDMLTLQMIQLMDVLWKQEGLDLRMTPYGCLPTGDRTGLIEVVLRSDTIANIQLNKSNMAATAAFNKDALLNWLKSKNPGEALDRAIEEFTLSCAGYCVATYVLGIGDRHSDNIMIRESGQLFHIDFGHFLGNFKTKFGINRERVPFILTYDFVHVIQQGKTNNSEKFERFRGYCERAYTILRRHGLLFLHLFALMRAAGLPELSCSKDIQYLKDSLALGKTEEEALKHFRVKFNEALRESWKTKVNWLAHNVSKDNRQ

Compound	IC50 [1]	IC50 [2]	IC50 [3]	IC50 [4]
COc1cc(-c2ccc3nc(C)c(-c4cnc(N)c(C(F)(F)F)c4)n3n2)ccc1OC1CCN(C(=O)OC(C)(C)C)CC1 [Example 92, 4-{4-[3-(6-Amino-5-trifluoromethyl-pyridin-3-yl)-2-methyl-imidazo[1,2-b]pyridazin-6-yl]-2-methoxy-phenoxy}-piperidine-1-carboxylic acid tert-butyl ester]	1780 nM	> 9100 nM	> 9100 nM	> 9100 nM
COc1cc(-c2ccc3nc(C)c(-c4cnc(N)c(C(F)(F)F)c4)n3n2)ccc1OCCNC(=O)Nc1cccc(C(F)(F)F)c1 [Example 93, 1-(2-{4-[3-(6-Amino-5-trifluoromethyl-pyridin-3-yl)-2-methyl-imidazo[1,2-b]pyridazin-6-yl]-2-methoxy-phenoxy}-ethyl)-3-(3-trifluoromethyl-phenyl)-urea]	2320 nM	> 9100 nM	4130 nM	3310 nM
COc1cc(-c2ccc3nc(C)c(-c4cnc(N)c(C(F)(F)F)c4)n3n2)ccc1OCCNC(=O)c1ccc(N2CCOCC2)cc1 [Example 94, N-(2-{4-[3-(6-Amino-5-trifluoromethyl-pyridin-3-yl)-2-methyl-imidazo[1,2-b]pyridazin-6-yl]-2-methoxy-phenoxy}-ethyl)-4-morpholin-4-yl-benzamide]	367 nM	> 9100 nM	6780 nM	> 9100 nM
COc1cc(-c2ccc3nc(C)c(-c4cnc(N)c(C(F)(F)F)c4)n3n2)ccc1OCCNC(=O)c1ccc(OC)c(OC)c1OC [Example 95, N-(2-{4-[3-(6-Amino-5-trifluoromethyl-pyridin-3-yl)-2-methyl-imidazo[1,2-b]pyridazin-6-yl]-2-methoxy-phenoxy}-ethyl)-2,3,4-trimethoxy-benzamide]	245 nM	> 9100 nM	5370 nM	4740 nM
COc1cc(-c2ccc3nc(C)c(-c4cnc(N)c(C(F)(F)F)c4)n3n2)ccc1OCCCN1CCNC1=O [Example 96, 1-(3-{4-[3-(6-Amino-5-trifluoromethyl-pyridin-3-yl)-2-methyl-imidazo[1,2-b]pyridazin-6-yl]-2-methoxy-phenoxy}-propyl)-imidazolidin-2-one]	31 nM	4860 nM	424 nM	805 nM
COc1ccc(-c2ccc3nc(C)c(-c4cnc(N)c(C(F)(F)F)c4)n3n2)cc1OCCCNC(=O)c1ccncc1 [Example 97, N-(3-{5-[3-(6-Amino-5-trifluoromethyl-pyridin-3-yl)-2-methyl-imidazo[1,2-b]pyridazin-6-yl]-2-methoxy-phenoxy}-propyl)-isonicotinamide]	118 nM	> 9100 nM	966 nM	1330 nM
COc1cc(-c2ccc3nc(C)c(-c4ccc(S(C)(=O)=O)cc4)n3n2)ccc1OC1CCN(C(=O)OC(C)(C)C)CC1 [Example 98, 4-{4-[3-(4-Methanesulfonyl-phenyl)-2-methyl-imidazo[1,2-b]pyridazin-6-yl]-2-methoxy-phenoxy}-piperidine-1-carboxylic acid tert-butyl ester]	9090 nM	> 9100 nM	> 9100 nM	> 9100 nM
CCS(=O)(=O)c1ccc(-c2c(C)nc3ccc(-c4ccc(OC5CCN(C(=O)OC(C)(C)C)CC5)c(OC)c4)nn23)cc1 [Example 99, 4-{4-[3-(4-Ethanesulfonyl-phenyl)-2-methyl-imidazo[1,2-b]pyridazin-6-yl]-2-methoxy-phenoxy}-piperidine-1-carboxylic acid tert-butyl ester]	> 9100 nM	> 9100 nM	> 9100 nM	> 9100 nM
COc1cc(-c2ccc3nc(C)c(-c4ccc(S(C)(=O)=O)cc4)n3n2)ccc1OC1CCNCC1 [Example 101, 3-(4-Methanesulfonyl-phenyl)-6-[3-methoxy-4-(piperidin-4-yloxy)-phenyl]-2-methyl-imidazo[1,2-b]pyridazine]	1040 nM	> 9100 nM	1180 nM	> 9100 nM
CCS(=O)(=O)c1ccc(-c2c(C)nc3ccc(-c4ccc(OC5CCNCC5)c(OC)c4)nn23)cc1 [Example 102, 3-(4-Ethanesulfonyl-phenyl)-6-[3-methoxy-4-(piperidin-4-yloxy)-phenyl]-2-methyl-imidazo[1,2-b]pyridazine]	2990 nM	> 9100 nM	2560 nM	> 9100 nM
COc1cc(-c2ccc3nc(C)c(-c4cnc(N)c(C(F)(F)F)c4)n3n2)ccc1OCCN(CC(=O)N(C)C)CC(=O)N(C)C [Example 103, 2-[(2-{4-[3-(6-Amino-5-trifluoromethyl-pyridin-3-yl)-2-methyl-imidazol[1,2-b]pyridazin-6-yl]-2-methoxy-phenoxy}-ethyl)-dimethylcarbamoylmethyl-amino]-N,N-dimethyl-acetamide]	15 nM	1830 nM	362 nM	662 nM
COc1cc(-c2ccc3nc(C)c(-c4cnc(N)c(C(F)(F)F)c4)n3n2)ccc1OCCN1CCNC1=O [Example 104, 1-(2-{4-[3-(6-Amino-5-trifluoromethyl-pyridin-3-yl)-2-methyl-imidazo[1,2-b]pyridazin-6-yl]-2-methoxy-phenoxy}-ethyl)-imidazolidin-2-one]	31 nM	2080 nM	255 nM	477 nM
Cc1nc2ccc(-c3ccc(OCCCN4CCCC4=O)cc3)nn2c1-c1cnc(N)c(C(F)(F)F)c1 [Example 105, 1-(3-{4-[3-(6-Amino-5-trifluoromethyl-pyridin-3-yl)-2-methyl-imidazo[1,2-b]pyridazin-6-yl]-phenoxy}-propyl)-pyrrolidin-2-one]	83 nM	6260 nM	273 nM	518 nM
Cc1nc2ccc(-c3ccc(OCCCN4CCCC4=O)cc3)nn2c1-c1ccc(S(C)(=O)=O)cc1 [Example 106, 1-(3-{4-[3-(4-Methanesulfonyl-phenyl)-2-methyl-imidazo[1,2-b]pyridazin-6-yl]-phenoxy}-propyl)-pyrrolidin-2-one]	2200 nM	> 9100 nM	1040 nM	1060 nM
CCS(=O)(=O)c1ccc(-c2c(C)nc3ccc(-c4ccc(OCCCN5CCCC5=O)cc4)nn23)cc1 [Example 107, 1-(3-{4-[3-(4-Ethanesulfonyl-phenyl)-2-methyl-imidazo[1,2-b]pyridazin-6-yl]-phenoxy}-propyl)-pyrrolidin-2-one]	4690 nM	> 9100 nM	2990 nM	> 9100 nM
Cc1nc2ccc(-c3ccc4c(c3)OCO4)nn2c1-c1cnc(N)c(C(F)(F)F)c1 [Example 108, 5-(6-Benzo[1,3]dioxol-5-yl-2-methyl-imidazo[1,2-b]pyridazin-3-yl)-3-trifluoromethyl-pyridin-2-ylamine]	985 nM	7080 nM	2270 nM	6790 nM

Reference: patent US20100305113A1, “Substituted Imidazopyridazines as Lipid Kinase Inhibitors” (priority 2007, published 2010)
